Legend:
[1] = test system: MC38 cells; assay: RNA-seq analysis of RNA splicing patterns in MC38 cells; assay type: cell-based, murine
Method: [FIG. 4-1] FIG. 4. Identification of Compound 1-inducible splice-neoantigen candidates using RNA-seq analysis. A: A diagram of enhanced tumor immunity through compound 1-induced splice-neoantigens. B: A scheme for the screening of Compound 1-induced splice-neoantigen candidates through transcriptome analysis and prediction for MHC class I presentation. RNA-seq was conducted for MC38 cells treated with 10 μM Compound 1 or 0.1% DMSO for 6 hours in three biological replicates each. RNA-seq analysis was performed as detailed in the “Experimental Methods” section.
Aberrant selective splicing events in cancer cells may become a source of potential neoantigens. As it was confirmed that MHC class I in cancer cells is indispensable for the antitumor effects of Compound 1, Compound 1 was predicted to alter aberrant alternative splicing events and enhance the production of splice-neoantigens (FIG. 4-1A). To validate this concept, RNA-seq analysis was performed to assess RNA splicing patterns affected by Compound 1 in MC38 cells and splice products yielding potential neoantigens capable of binding to MHC class I (FIG. 4-1B). […] Next, to identify neoepitopes translating potential splice-neoantigens, splicing events elicited by Compound 1 that created abnormal coding sequences were extracted, and subsequently, whether these events create abnormal peptides were checked by comparing them with a reference peptide database.
With this approach, 169 Compound 1-induced non-annotated splice events for 130 genes were identified as neoantigen candidates, which were further subjected to prioritization based on the prediction scores for the binding affinity of each peptide to MHC class I alleles (H2-K^b and H2-D^b) with NetMHCpan4.1, the extents of splice rates, and mRNA expression (FIG. 4-2C).
RNA-Seq libraries were prepared using a TruSeq Stranded mRNA Library Kit (Illumina, San Diego, CA) and used for paired-end sequencing on an Illumina NovaSeq 6000 platform. RNA-seq data were mapped to the GRCm38 (mm10) genome sequence using HISAT2 program version 2.2.0 with the “--rna-strandness RF” option. Splice-junction information available from Ensembl gene annotation version 100 was used in this process. Mapped results were discarded when either of the paired reads was not mapped to the genome, or the relationships of mapping positions were abnormal.
For splicing analysis, rMATS program version 4.1.0 was used. For the reference transcript models used in the rMATS analysis, a set of new transcripts based on RNA-seq data was constructed using Cufflinks program version 2.2.1. Because the rMATS program skips soft-clipped reads and reads having indels in their alignment, bam files were modified to replace soft clipping and indel information as not changing the splice position information. After rMATS analysis, altered splicing events were extracted according to the following criteria: FDR<0.01, dPSI≥5.0, and average number of spliced reads≥15 in either of the samples.
Spliced regions were compared with Ensembl gene annotations for describing the amino acid sequence encoded in these regions. Amino acid sequences not observed in the original peptide database were searched and stored with seven amino acids margins from known sequences.

[2] = test system: B2m-knockout MC38 clones; assay: B2m KO MC38 clones and negative control clone intradermally inoculated into mice; assay type: in vivo
Method: [FIG. 3-2] Continuation of FIG. 3. G to J: The experimental schema (G), tumor volumes (H), flow cytometric images (I), as well as quantitative data (J) of tumor-infiltrating CD8^+ T cells on day 23 are shown (n=5 to 9/group). * represents p<0.05, and ** represents p<0.01. K: Tumor volumes of mice (n=5 to 6/group). Mice were intraperitoneally injected with 35 μg of αPD-L1 antibody or isotype control (isotype IgG) once weekly on days 9 and 16 for NC and days 11 and 18 for B2M KO #2. * represents p<0.05. All data are shown as the mean±SEM. Experiments were performed at least twice for A to F, or once for others. Statistical significance was determined using unpaired Student's t-test for (H), (J), and (K) and one-way ANOVA followed by Bonferroni's multiple comparisons test for (D) and (F).
Furthermore, whether neoantigen presentation in cancer cells is important for the antitumor effects of Compound 1 was investigated by establishing a CRISPR-Cas9-mediated knockout of B2m, an essential component of MHC class I, using MC38 cells. […] It was further confirmed that surface H-2K^b on these cells disappeared (FIGS. 3-1C and 3-1D) without affecting IFN-γ signaling (FIG. 3-1A) and the expression of PD-L1 on the cell surface (FIGS. 3-1E and 3-1F).
Then, these B2m KO MC38 clones were intradermally inoculated into immunodeficient mice, and the antitumor effects of Compound 1 were evaluated (FIG. 3-2G).

[3] = Systemic administration of a high dose to normal mice for 4 weeks (autoimmune reactions); assay type: in vivo
Method: [FIG. 2-2] Continuation of FIG. 2. H to M: Compound 1 (100 mg/kg) or vehicle control (0.5% CMC-Na) was orally administered to 7-week-old female C57BL/6N mice twice daily for 7 continuous days (J and K) or once daily for 4 weeks (I, L, and M), while αPD-L1 antibody or isotype control (isotype IgG) was intraperitoneally injected once weekly. The experimental scheme is indicated in (H). Body weights (n=6/group) were monitored weekly (I). Mice were sacrificed on day 7 (n=5/group) to analyze peripheral blood (J) and spleen (K).
[FIG. 2-3] Continuation of FIG. 2. Land M: Mice were sacrificed on day 28 (n=3/group) to perform CD8 immunohistochemical staining (IHC). Scale bars represent 50 μm. The number of CD8+ cells was counted using ImageJ software in three areas of each tissue. All data are shown as the mean±SEM. Experiments were performed at least twice for B to G, or once for others. *** p<0.001 vs. vehicle control was determined using one-way ANOVA followed by Bonferroni's multiple comparisons test.
Next, to determine whether the enhancement of cancer immunity by co-administration of Compound 1 and αPD-L1 raises concerns regarding autoimmune reactions, a high dose of Compound 1 was systemically administered to normal mice for 4 weeks (FIG. 2-2H).

[4] = test system: colon, lung, and liver tissues; assay: RNA-seq of normal tissues from Compound 1-administered mice; assay type: in vivo
Excerpt: In addition, the RNA-seq data corresponding to colon, lung, and liver tissues from Compound 1-administered mice was also examined to analyze the extent of splicing alterations. […] Considering that immune responses were not triggered by Compound 1 in these tissues, these altered splicing events in normal tissues were likely irrelevant to immunogenicity (FIGS. 2-2I to 2-3M).

Clc1nc(NCc2ccco2)c2[nH]cnc2n1 [Compound 1]
exonization induced in neurofibromin 1 (Nf1) [1]: 108 bp
genes with induced non-annotated splice events ([1]; 10 μM, 6 hours): 130
induced non-annotated splice events identified as neoantigen candidates ([1]; 10 μM, 6 hours): 169
mRNA expression and splicing patterns of H2-K^b and PD-L1 ([1]; RNA-seq data): not significantly altered
mRNA expression of genes encoding conventional neoantigens ([1]; data not shown): no effect
antitumor effects (tumor growth) ([2]; B2m KO clones): completely abolished
number of CD8^+ T cells in tumors ([2]; B2m KO-derived tumors): no longer inducible
antitumor effects (tumor growth) ([2]; negative control clone): suppressed tumor growth
leukocyte numbers and biochemical parameters in peripheral blood ([3]; data not shown): no alterations were observed
spleen weight, leukocyte numbers, and expression of T cell activation markers in spleen and peripheral blood ([3]; day 7, with or without αPD-L1): no effect
histological analysis of non-malignant tissues: CD8^+ T cells, inflammatory lesions ([3]; day 28, irrespective of co-treatment with αPD-L1): did not result in the accumulation of CD8^+ T cells or appearance of inflammatory lesions
body weight changes ([3]; throughout 4 weeks, with or without αPD-L1): comparable
induced splicing events fewer in normal tissues than in MC38 cells ([4]; colon, lung, liver): 50-60%
validated splice-neoantigen forms in normal tissues ([4]; data not shown): none of the validated splice-neoantigen forms were significantly induced

Source: patent US20240423988A1, “Improvement of Tumor Immunogenicity by Means of Splicing-Controlling Compound” (Kyoto University, priority 2021, published 2024)
